Assay [1] concerns Brain microsomal Na+/Ca2+ exchanger. Kind of assay: Brain microsomal Na+/Ca2+ exchanger, Na-dependent 45Ca uptake. Particulars: rat brain microsomes; read-out: Inhibitory activity against Na+/Ca2+ exchange (Na-dependent 45Ca uptake), IC50 value, Brain. It is filed as biochemical. As for the experimental part: Method of Measuring for Brain Microsomal Na^+/Ca^2+ Exchanger
Brain microsomes (1.5 mg/mil) obtained from 8-week-old rats were pre-treated with 160 mM NaCl-containing buffer to cause Na loading into membrane vesicles. This suspension was diluted 50-fold with 20 μM ^45CaCl2-containing buffer to induce ^45Ca uptake, followed by dilution with the buffer (0° C.) to stop the reaction. The membrane vesicles were immediately collected on a nitrocellulose filter. Subsequently, ^45Ca trapped inside the membrane vesicles was determined by liquid scintillation counting. The above assay for Na^+/Ca^2+ exchange activity in brain microsomes was performed according to the procedures described in J. Biol. Chem., vol. 257, p. 5111 (1982).

Assay [2] deals with T1, Canine cardiac sarcolemmal vesicle Na+/Ca2+ exchanger (Canis lupus familiaris, UniProt P23685).
T1 construct: Canine cardiac sarcolemmal vesicles (0.5 mg/ml) were prepared by centrifugal fractionation; from tissue; host or cells: canine cardiac sarcolemmal vesicles
In words: Canine cardiac sarcolemmal vesicle Na+/Ca2+ exchanger, Na-dependent 45Ca uptake. Format: biochemical. Particulars: canine cardiac sarcolemmal vesicles; read-out: Inhibitory activity against Na+/Ca2+ exchange (Na-dependent 45Ca uptake), IC50 value, Cardiac sarcolemma. The procedure: Method of Measuring for Canine Cardiac Sarcolemmal Vesicle Na^+/Ca^2+ Exchanger
Canine cardiac sarcolemmal vesicles (0.5 mg/ml) were prepared by centrifugal fractionation as described in Methods enzymology, vol. 157, p. 85 (1988) and suspended in Solution A (20 mM MOPS-Tris (pH 7.4), 160 mM NaCl or KCl), followed by incubation at room temperature for about one hour to cause Na or K loading into the vesicles. This suspension was diluted 50-fold with 20 μM ^45CaCl2-containing buffer to induce ^45Ca uptake, followed by dilution with the buffer (0° C.) to stop the reaction. The membrane vesicles were immediately collected on a nitrocellulose filter. Subsequently, ^45Ca trapped inside the membrane vesicles was determined by liquid scintillation counting. The Na^+/Ca^2+ exchange activity was evaluated by subtracting the value obtained for K loading from the value obtained for Na loading. The above assay for Na^+/Ca^2+ exchange activity in canine cardiac sarcolemmal vesicles was performed according to the procedures described in J. Biol. Chem., vol. 257, p. 5111 (1982).

Assay [3] concerns the target T2, Rat renal cortex-derived BLMVs Na+/Ca2+ exchanger (Rattus norvegicus, UniProt Q01728).
T2 construct: BLMVs were prepared from rat renal cortex; from tissue; host or cells: rat renal cortex basolateral membrane vesicles
In words: Rat renal cortex-derived BLMV Na+/Ca2+ exchange activity, Na-dependent 45Ca uptake. It is filed as biochemical. Particulars: for IC50: rat renal cortex BLMVs, read-out: Inhibitory activity against Na+/Ca2+ exchange (Na-dependent 45Ca uptake), IC50 value, Renal cortex. As for the experimental part:
Preparation of Rat Renal Cortex-Derived BLMVs (Basolateral Membrane Vesicles) and Method of Measuring for their Na^+/Ca^2+ Exchange Activity
BLMVs were prepared from rat renal cortex and assayed for Na^+/Ca^2+ exchange activity according to the procedures described in Am. J. Physiol., vol. 266, p. F785 (1994).
After being excised from rats, the kidneys were placed in ice-cold sucrose buffer ([…], 0.1 mM PMSF, 10 mM Tris-HCl (pH 7.6)) and decapsulated. The isolated cortex was then finely minced in the sucrose buffer and homogenized sequentially with a Dounce-type homogenizer and a Polytron-type homogenizer, followed by centrifugation at 2500 g for 15 minutes to collect the supernatant. Centrifugation was repeated at 24000 g for 20 minutes to collect the white fluffy portion of the pellet. After further addition of the sucrose buffer, the collected fraction was homogenized with a Dounce-type homogenizer, supplemented with Percoll and then centrifuged at 30000 g for 35 minutes to collect the middle layer. After addition of buffer (100 mM KCl, 100 mM mannitol, 5 mM HEPES-Tris (pH 7.4)), centrifugation was carried out at 34000 g for 30 minutes to collect the loose white pellet (BLMVs). The pellet was further suspended in the KCl-mannitol buffer and then centrifuged at 34000 g for 30 minutes to collect the precipitate, which was used for activity assay.
(Method of Measuring for Na^+/Ca^2+ Exchanger (Na-Dependent ^45Ca Uptake))
The BLMVs thus prepared were equilibrated at 37° C. for 10 minutes in pre-equilibration buffer (100 mM NaCl, 40 mM KCl, 1 mM MgSO4, 10 mM glucose, 5 mM HEPES-Tris (pH 7.4)) and then centrifuged at 20000 g for 5 minutes to collect the precipitate, which was then resuspended in the pre-equilibration buffer. Centrifugation was repeated to collect the precipitate, followed by resuspension in the pre-equilibration buffer. […] Subsequently, the filter was washed twice with 2 ml stop solution and then the amount of ^45Ca trapped inside the BLMVs was determined by using liquid scintillation method.

Assay [4] has as its system Dahl-salt sensitive (Dahl-S) rats. Kind of assay: Kidney protective activity in Dahl-salt sensitive rat. Format: in vivo. Particulars: 10 mg/kg orally twice a day, 6 weeks. As for the experimental part: This test was conducted following the method described in J. Cardiovascular Pharmacology, Vol. 23, p. 970 (1994). Specifically, procedures are as follows.
Dahl-salt sensitive (Dahl-S) rats and Dahl-salt resistant (Dahl-R) rats as control animals (male, 7 weeks old) were used for the experiment. The rats were divided into 3 groups (6 individuals for each group) for the test. • Group I: Dahl-R+4% NaCl chow+solvent orally administered (twice a day) • Group II: Dahl-S+4% NaCl chow+solvent orally administered (twice a day) • Group III: Dahl-S+4% NaCl chow+SEA0400 10 mg/kg orally administered (twice a day)
Each animal was fed with a 4% NaCl high-salt-containing chow (whereas normal chow contains 0.6% NaCl) and water adlibitum. The solvent and SEA0400 were orally, administered twice a day (first time at 8:30 to 9:30 and second time at 16:30 to 17:30) for consecutive 6 weeks. In 6 weeks after the administration started, each of the rats was placed in a metabolic cage where urine was taken so that the amounts of protein and albumin in urine were measured to observe the effect on the kidney function. Determination of the amounts of protein and albumin in urine was performed following the method described in Bunseki Kagaku, Vol. 32, pp. E379-E386 (1983) and Hypertension, Vol. 40, No. 6, pp. 834-839 (2002) using an autoanalyzer (HITACHI Automatic Analyzer 7060).

Another assay deals with ZSF-1 rats. Kind of assay: Kidney protective activity in spontaneous diabetic rats (ZSF-1). Format: in vivo, rat. Particulars: for Amount of urinary albumin excretion / Amount of urinary protein excretion: ZSF-1 rats. The procedure:
ZSF-1 rats and ZSF-1/lean rats which were control animals (8 weeks old) obtained from The Jackson Laboratory were used for this test. The rats were divided into 5 groups (8 individuals for each group) for the test. • Group I: ZSF-1/lean+solvent orally administered (twice a day) • Group II: ZSF-1+solvent orally administered (twice a day) • Group III: ZSF-1+SEA0400 1 mg/kg orally administered (twice a day) • Group IV: ZSF-1+SEA0400 3 mg/kg orally administered (twice a day) • Group V: ZSF-1+SEA0400 10 mg/kg orally administered (twice a day)
The solvent and SEA0400 were orally administered twice a day (first time at 8:30 to 10:30 and second time at 16:30 to 18:30) for consecutive 8 weeks. Eight weeks after the administration started, each of the rats was placed in a metabolic cage where urine was taken so that the amounts of protein and albumin in urine were measured to observe the effect oil the kidney function. Determination of the amounts of protein and albumin was performed following the description of the above-mentioned references using an autoanalyzer (HITACHI 7060 Automatic Analyzer).

From US20050203189A1, “Remedies for chronic kidney diseases” (priority 2002, published 2005) come the findings set out here.

In the case of `N=C(N)SCCc1ccc(OCc2ccc([N+](=O)[O-])cc2)cc1` [K-BR7943, 2-[2-[4-[nitrobenzyloxy]phenyl]ethyl]isothio-ureamethanesulfonate, reference compound], the IC50 in assay [1] turned out to be 11 µM; in assay [2] it was 7 µM; in assay [3], 6.8 µM.
As to `O=[N+]([O-])c1cccnc1Oc1ccc(OCc2ccc(F)cc2)cc1` [SEA0064], the “Inhibitory activity relative to SEA0400, renal cortex-derived Na+/Ca2+ exchange activity” value in assay [3] (relative to SEA0400) is recorded as “about 0.07 fold”.
As for `CCOc1ccc(Oc2ccc(OCc3cc(F)ccc3F)cc2)c(N)c1` [SEA0400, 2-[4-[(2,5-difluorophenyl)methoxy]phenoxy]-5-ethoxyaniline], the figures for the IC50 in assay [1], in assay [2] and in assay [3] were 0.2 µM, 0.09 µM and 0.02 µM, respectively. Moreover, the “Kidney protective activity (effect on increase in urinary protein and albumin excretion)” value in assay [4] was “significantly inhibited the increase in urinary protein and albumin excretion”; in the assay with ZSF-1 rats (spontaneous diabetic rats (ZSF-1), orally twice a day, 8 weeks) it was “significantly inhibited the increase in urinary protein and albumin excretion”. Besides, the “Amount of urinary albumin excretion” value in assay [4] (4% NaCl chow, solvent group 109±14, Dahl-R 2±1) came out at 58 ± 8 mg/day; in the assay on ZSF-1 rats (1 mg/kg orally twice a day, 8 weeks (Group III), solvent group 28±5, lean 1±0.1), 20 ± 5 mg/day; with ZSF-1 rats (3 mg/kg orally twice a day, 8 weeks (Group IV), solvent group 28±5), 17 ± 5 mg/day; in the assay on ZSF-1 rats (10 mg/kg orally twice a day, 8 weeks (Group V), solvent group 28±5, significantly lower), 9 ± 2 mg/day. Moreover, the “Amount of urinary protein excretion” value amounted to 91 ± 12 mg/day in assay [4] (4% NaCl chow, solvent group 144±11, Dahl-R 23±2); 40 ± 8 mg/day in the assay on ZSF-1 rats (1 mg/kg orally twice a day, 8 weeks (Group III), solvent group 58±9, lean 14±1); 37 ± 7 mg/day in the assay on ZSF-1 rats (3 mg/kg orally twice a day, 8 weeks (Group IV), solvent group 58±9); 29 ± 5 mg/day in the assay on ZSF-1 rats (10 mg/kg orally twice a day, 8 weeks (Group V), solvent group 58±9, significantly lower).
